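Protocol summary: plate cells (96-well), add compound at 5 concentrations, incubate 48 h, interpolate endpoints linearly. The concentration for 50% growth inhibition is given as GI50. TGI marks complete inhibition of growth.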
Columns and labels:
Test in all cases: NCI tumour cell line growth inhibition, 48 h
[1] = system: KM12 colon
[2] = system: MOLT-4 leukemia
[3] = system: NCI-H460 lung
[4] = system: RPMI-8226 leukemia
[5] = system: SF-268 CNS
[6] = system: SW-620 colon
[7] = system: U251 CNS
[8] = system: COLO 205 colon
[9] = system: M19-MEL melanoma
[10] = system: SN12C renal

SMILES	TGI [1]	TGI [2]	TGI [3]	TGI [4]	TGI [5]	TGI [6]	TGI [7]	TGI [8]	TGI [9]	TGI [10]	GI50 [8]	GI50 [1]	GI50 [2]	GI50 [3]	GI50 [4]	GI50 [5]	GI50 [10]	GI50 [6]	GI50 [7]
O=C1OC(c2ccccc2Br)=N/C1=C/c1ccccc1	34 µM	> 100 µM	> 100 µM	> 100 µM	> 100 µM	> 100 µM	69.7 µM												
O=C1CCC2COc3ccc(O)c1c32 (centres undefined)		> 100 µM	> 100 µM	> 100 µM		> 100 µM	> 100 µM	> 100 µM	> 100 µM	> 100 µM									
O=c1oc2ccccc2n1P(=O)(Oc1ccc(Cl)cc1)n1c(=O)oc2ccccc21	> 100 µM	> 100 µM			> 100 µM	> 100 µM	> 100 µM	> 100 µM	> 100 µM	> 100 µM									
COc1nc(NC2OC(CO)C(O)C(O)C2O)c(N)c(=O)[nH]1 (centres undefined)	> 100 µM	> 100 µM	> 100 µM	> 100 µM	> 100 µM	> 100 µM	> 100 µM	> 100 µM	> 100 µM	> 100 µM									
Nc1ncnc2c1ccn2-c1cccc(NC(=O)c2ccc(N3CCOCC3)c(C(F)(F)F)c2)c1	10.4 µM	20.1 µM	9.33 µM	4.04 µM	13.1 µM	17.8 µM	6.44 µM	15.1 µM		9.64 µM	3.79 µM	2.69 µM	3.05 µM	2.92 µM	1.39 µM	3.44 µM	2.9 µM	4.23 µM	2.41 µM
COC(=O)Cc1c(C2C(CC(=O)OC)c3ccccc3N2C2OC(CO)C(O)C(O)C2O)[nH]c2ccccc12 (centres undefined)	> 100 µM	> 100 µM	> 100 µM	> 100 µM	> 100 µM	> 100 µM	> 100 µM	> 100 µM		> 100 µM									
CC(C)(C)CI	64.6 µM	76.9 µM	81.2 µM		> 100 µM	36.1 µM	66.4 µM	47 µM	53.9 µM	32.4 µM									
CC1OC(CO)(n2cnc3c(N)ncnc32)C(O)C1O (centres undefined)	> 100 µM	> 100 µM	> 100 µM	> 100 µM	> 100 µM	> 100 µM	> 100 µM	> 100 µM	> 100 µM	> 100 µM									
CCCCCCCCCCCCCCCCCCOc1ccccc1COP(=O)(O)OOCC[N+](C)(C)C	2.12 µM		12.5 µM		7.19 µM	5.36 µM		2.57 µM		3.17 µM	1.04 µM	1.01 µM		2.81 µM		1.55 µM	1.1 µM	1.43 µM	
C#CCNC(=O)CC[C@@H](C)[C@H]1CC[C@H]2[C@@H]3CC[C@@H]4CC(=O)CC[C@]4(C)[C@H]3CC[C@]12C	70.2 µM	43.7 µM	51.2 µM	19.1 µM	44.4 µM	43.7 µM	39.4 µM	32.5 µM		32.1 µM	15.7 µM	18.8 µM	10.3 µM	22 µM	1.82 µM	17.5 µM	13.2 µM	17.8 µM	15.8 µM
NC(CSCSCC(N)C(=O)O)C(=O)O (centres undefined)	> 104 µM	> 225 µM	> 225 µM	> 225 µM	> 225 µM	> 225 µM	> 225 µM	> 225 µM	> 225 µM	> 225 µM									
